Data on 16 molecules can be found in paper PMC8225628, “Bispecific repurposed medicines targeting the viral and immunological arms of COVID-19” (Scientific Reports, 2021).

This test concerns the target SARS-CoV-2 M^pro (Severe acute respiratory syndrome coronavirus 2, UniProt P0DTD1). The test is described as follows: biochemical.
[1] abbreviates: ReFRAME hits, >5e-6 = not potent enough to determine an IC50, read-out: M^pro IC50.

“And” between values parts separate entries of the source, which are not always exact repeats. Identical values can stand only once. Like-named read-outs stand apart in the source and are kept apart here. *1 amine or outer side, *2 acyl side, *3 side chain or, on linkers, in order; H or OH if unused. Where a SMILES comes first, the peptide text is derived from it. Bridges are numbered along the chain shown (N, C = ends). [ ]: non-standard residue; d: D form. The star is where a group is joined. hTyr(3S-OH,4S-OH,3'-OSO3H) = N[C@H](C(=O)O)[C@H](O)[C@@H](O)c1ccc(O)c(OS(=O)(=O)O)c1; Orn(4R-OH,5R-OH) = O=C([C@H](C[C@@H](O)[C@@H](O)N[*:3])N[*:1])[*:2]; Pro(3S-OH,4S-Me) = C[C@H]1CN[C@H](C(=O)O)[C@H]1O; X1 = CCCCCOc1ccc(-c2cc(-c3ccc(C(=O)*)cc3)no2)cc1; Gln(3R-OH) = NC(=O)C[C@@H](O)[C@H](N)C(=O)O; Hyp = O=C(O)[C@@H]1C[C@@H](O)CN1 Where only a bound is given, the exact number is not on record here.

`CN1CCCN=C1/C=C/c1cccc(O)c1` [oxantel (pamoate), reference compound]: under setting [1], the IC50 was found to be 4 µM.
Regarding `Cc1cc(O)c2c(=O)c3c(O)cc(O)c4c5c(O)cc(O)c6c(=O)c7c(O)cc(C)c8c1c2c(c34)c(c78)c65` [hypericin], the inhibition at 10 µM (read-out: M^pro % inhibition at 10 µM, ReFRAME hits, 10 µM) was 71%. In addition, the IC50 (read-out: M^pro IC50) was 4 µM.
Turning to `CC(=O)[O][Hg][c]1cc(C(C)(C)CC(C)(C)C)ccc1O` [acetomeroctol], the “M^pro % inhibition at 10 µM” value is 79%. For the same molecule, the IC50 (read-out: M^pro IC50) was over 5 µM.
`CN1CCCN=C1/C=C/c1cccs1` [Pyrantel pamoate, reference compound] gave an IC50 of 4 µM.
For `O=c1cc(-c2ccc(O)c(-c3c(O)cc(O)c4c(=O)cc(-c5ccc(O)cc5)oc34)c2)oc2cc(O)cc(O)c12` [amentoflavone], the IC50 (read-out: M^pro IC50) was over 5 µM.
Regarding `[Cl][Hg][Cl]` [mercuric chloride], the “M^pro % inhibition at 10 µM” value (ReFRAME hits, 10 µM) turned out to be 89%. Moreover, the 50% inhibitory concentration (IC50) under setting [1] was over 5 µM.
In the case of teicoplanin [reference compound], the “M^pro % inhibition at 10 µM” value (ReFRAME hits, 10 µM) is 73% and 40%. For the same molecule, under setting [1], the IC50 was over 5 µM.
Regarding (-)-epicatechin gallate, the “M^pro % inhibition at 10 µM” value (ReFRAME hits, 10 µM) worked out at 46%. For the same molecule, the IC50 under setting [1] is over 5 µM.
Under “at 100 µM”, `CC(C)[C@H](NC(=O)OCc1ccccc1)C(=O)N[C@@H](C)C(=O)N[C@@H](CC(=O)O)C(=O)COC(=O)c1c(Cl)cccc1Cl` [Compound 5] registered an inhibition at 100 µM of 50%.
For [(-)-epicatechin], the “M^pro % inhibition at 10 µM” value (ReFRAME hits, 10 µM) is 48%. Also, under setting [1], the IC50 is over 5 µM.
As for `Nc1nc(N)nc(Nc2ccc([As]3SC(C(=O)O)C(C(=O)O)S3)cc2)n1` (stereo not drawn) [MELARSONYL], the “M^pro % inhibition at 10 µM” value is 99%. Further, where the note is “read-out: M^pro IC50”, the IC50 turned out to be 1 µM.
Turning to `O=C1OC2(c3ccccc31)c1cc(I)c(O)c(I)c1Oc1c2cc(I)c(O)c1I` [erythrosine], the IC50 came to 4 µM.
`CN1CCCN=C1/C=C/c1cccc(O)c1.O=C(O)c1cc2ccccc2c(Cc2c(O)c(C(=O)O)cc3ccccc23)c1O` [oxantel (pamoate), reference compound]: where the note is “ReFRAME hits, 10 µM”, the “M^pro % inhibition at 10 µM” value was 77%.
Regarding `CCCCCOc1ccc(-c2cc(-c3ccc(C(=O)N[C@H]4C[C@@H](O)[C@@H](O)NC(=O)[C@@H]5[C@@H](O)[C@@H](C)CN5C(=O)[C@H]([C@H](O)CC(N)=O)NC(=O)[C@H]([C@H](O)[C@@H](O)c5ccc(O)c(OS(=O)(=O)[O-])c5)NC(=O)[C@@H]5C[C@@H](O)CN5C(=O)[C@H]([C@@H](C)O)NC4=O)cc3)no2)cc1.[Na+]` [micafungin Sodium, reference compound] (X1-[Orn(4R-OH,5R-OH)]T[Hyp][hTyr(3S-OH,4S-OH,3'-OSO3H)][Gln(3R-OH)][Pro(3S-OH,4S-Me)]; lactam 1-C), the “M^pro % inhibition at 10 µM” value (ReFRAME hits, 10 µM) was 50%. Further, the IC50 under setting [1] was over 5 µM.
Take `CC(=O)N[C@@H](Cc1ccc(O)cc1)C(=O)N[C@H](C(=O)N[C@@H](C)C(=O)N[C@@H](CC(=O)O)C(=O)COC(=O)c1c(C)cccc1C)C(C)C` [Compound 6, Ac-YVAD-AOM, reference compound]: the “Inhibition of M^pro (in words)” value is “did not substantially inhibit”.
In the case of `O=C(N/N=C/c1ccc([N+](=O)[O-])o1)c1cc([N+](=O)[O-])cc([N+](=O)[O-])c1O` [nifursol], the IC50 (read-out: M^pro IC50) is over 5 µM.
